# Experimental data from patent US20040006070A1, “Intraspinal continuous infusion of midazolam hydrochloride for the treatment of pain” (priority 2002, published 2004).
# Where a name gives a salt, the structure may show the parent alone.
# Experiment: Bloodwork: complete blood count, electrolytes, extended blood chemistry
# Format: in vivo, sheep
# Description: Indirect blood pressure, pulse recording, pain testing (mechanical stimulus device, cold and warm water baths see description in procedure) and weight were taken on days 1, 3, 7, 15, 22, 29, 36, and 43. Venous blood samples (15 ml drawn from the jugular vein with Vacutainer brand blood collection tubes) for complete blood count, electrolytes, and extended blood chemistry were drawn on days 1, 15, and 43 (mild procedure only light hand restraint necessary).
# [1] = Double Blinded Sheep, Chemistries, Day 15
# [2] = Double Blinded Sheep, Chemistries, Day 43
# [3] = sheep #84 Roadrunner, 15 mg/day, Baseline
# [4] = sheep #84 Roadrunner, 15 mg/day, Day 1
smiles,measurement,setting,value
"Cc1ncc2n1-c1ccc(Cl)cc1C(c1ccccc1F)=NC2 [Midazolam, midazolam hydrochloride]",ALT,[1],10 U/L
same,AST,[1],72 U/L
same,CPK,[1],100 U/L
same,Cholesterol,[1],74 mg/dL
same,Total Bili,"Double Blinded Sheep, Chemistries, Day 15, reference range 0.14-0.32",0.1 mg/dL
same,Creatinine,"Double Blinded Sheep, Chemistries, Day 15, reference range 1-2.7",1.1 mg/dL
same,Albumin,"Double Blinded Sheep, Chemistries, Day 15, reference range 2.4-3",3.6 g/dL
same,K+,"Double Blinded Sheep, Chemistries, Day 15, reference range 3.9-5.4",4.8 mEq/l
same,Phos,"Double Blinded Sheep, Chemistries, Day 15, reference range 5-7.3",6.4 mg/dL
same,Total Prot,"Double Blinded Sheep, Chemistries, Day 15, reference range 6-7.9",7.1 g/dL
same,BUN,"Double Blinded Sheep, Chemistries, Day 15, reference range 8-20",25 mg/dL
same,Gamma GT,"Double Blinded Sheep, Chemistries, Day 15, reference range 25-59",87 U/L
same,Glucose,"Double Blinded Sheep, Chemistries, Day 15, reference range 42-76",82 mg/dL
same,Alk Phos,"Double Blinded Sheep, Chemistries, Day 15, reference range 68-387",154 U/L
same,Na+,"Double Blinded Sheep, Chemistries, Day 15, reference range 139-152",146 mEq/l
same,ALT,[2],15 U/L
same,AST,[2],78 U/L
same,CPK,[2],96 U/L
same,Cholesterol,[2],80 mg/dL
same,Total Bili,"Double Blinded Sheep, Chemistries, Day 43, reference range 0.14-0.32",0.1 mg/dL
same,Creatinine,"Double Blinded Sheep, Chemistries, Day 43, reference range 1-2.7",1.0 mg/dL
same,Albumin,"Double Blinded Sheep, Chemistries, Day 43, reference range 2.4-3",3.6 g/dL
same,K+,"Double Blinded Sheep, Chemistries, Day 43, reference range 3.9-5.4",5.7 mEq/l
same,Phos,"Double Blinded Sheep, Chemistries, Day 43, reference range 5-7.3",6.9 mg/dL
same,Total Prot,"Double Blinded Sheep, Chemistries, Day 43, reference range 6-7.9",6.9 g/dL
same,BUN,"Double Blinded Sheep, Chemistries, Day 43, reference range 8-20",26 mg/dL
same,Gamma GT,"Double Blinded Sheep, Chemistries, Day 43, reference range 25-59",73 U/L
same,Glucose,"Double Blinded Sheep, Chemistries, Day 43, reference range 42-76",70 mg/dL
same,Alk Phos,"Double Blinded Sheep, Chemistries, Day 43, reference range 68-387",179 U/L
same,Na+,"Double Blinded Sheep, Chemistries, Day 43, reference range 139-152",146 mEq/l
same,ALT,"sheep #83, 15 mg/day, Day 1",0 U/L
same,AST,"sheep #83, 15 mg/day, Day 1",102 U/L
same,Alk Phos,"sheep #83, 15 mg/day, Day 1",48 U/L
same,BUN,"sheep #83, 15 mg/day, Day 1",8 mg/dL
same,CPK,"sheep #83, 15 mg/day, Day 1",65 U/L
same,Cholesterol,"sheep #83, 15 mg/day, Day 1",47 mg/dL
same,Differential Count: Eosin,"sheep #83, 15 mg/day, Day 1",1%
same,Differential Count: Lymph,"sheep #83, 15 mg/day, Day 1",55%
same,Differential Count: Mono,"sheep #83, 15 mg/day, Day 1",5%
same,Differential Count: Seg,"sheep #83, 15 mg/day, Day 1",39%
same,Gamma GT,"sheep #83, 15 mg/day, Day 1",62 U/L
same,Glucose,"sheep #83, 15 mg/day, Day 1",78 mg/dL
same,Hct,"sheep #83, 15 mg/day, Day 1",37.2%
same,Hgb,"sheep #83, 15 mg/day, Day 1",12.7 g/dL
same,MCH,"sheep #83, 15 mg/day, Day 1",11.3 pg
same,MCHC,"sheep #83, 15 mg/day, Day 1",34.0 g/dL
same,MCV,"sheep #83, 15 mg/day, Day 1",33.2 fL
same,Na+,"sheep #83, 15 mg/day, Day 1",148 mEq/l
same,Platlet Count,"sheep #83, 15 mg/day, Day 1",879000 µL⁻¹
same,RBC,"sheep #83, 15 mg/day, Day 1",1.12e+07 µL⁻¹
same,WBC,"sheep #83, 15 mg/day, Day 1",5320 µL⁻¹
same,Total Bili,"sheep #83, 15 mg/day, Day 1, ref 0.14-0.32",0.1 mg/dL
same,Creatinine,"sheep #83, 15 mg/day, Day 1, ref 1-2.7",1.4 mg/dL
same,Albumin,"sheep #83, 15 mg/day, Day 1, ref 2.4-3",3.3 g/dL
same,K+,"sheep #83, 15 mg/day, Day 1, ref 3.9-5.4",4.2 mEq/l
same,Phos,"sheep #83, 15 mg/day, Day 1, ref 5-7.3",7.1 mg/dL
same,Total Prot,"sheep #83, 15 mg/day, Day 1, ref 6-7.9",6.1 g/dL
same,ALT,"sheep #83, 15 mg/day, Day 15",8 U/L
same,AST,"sheep #83, 15 mg/day, Day 15",52 U/L
same,Alk Phos,"sheep #83, 15 mg/day, Day 15",90 U/L
same,BUN,"sheep #83, 15 mg/day, Day 15",90 mg/dL
same,CPK,"sheep #83, 15 mg/day, Day 15",107 U/L
same,Cholesterol,"sheep #83, 15 mg/day, Day 15",65 mg/dL
same,Differential Count: Eosin,"sheep #83, 15 mg/day, Day 15",1%
same,Differential Count: Lymph,"sheep #83, 15 mg/day, Day 15",68%
same,Differential Count: Mono,"sheep #83, 15 mg/day, Day 15",2%
same,Differential Count: Seg,"sheep #83, 15 mg/day, Day 15",29%
same,Gamma GT,"sheep #83, 15 mg/day, Day 15",72 U/L
same,Glucose,"sheep #83, 15 mg/day, Day 15",66 mg/dL
same,Hct,"sheep #83, 15 mg/day, Day 15",33.2%
same,Hgb,"sheep #83, 15 mg/day, Day 15",11.5 g/dL
same,MCH,"sheep #83, 15 mg/day, Day 15",11.4 pg
same,MCHC,"sheep #83, 15 mg/day, Day 15",34.7 g/dL
same,MCV,"sheep #83, 15 mg/day, Day 15",33.0 fL
same,Na+,"sheep #83, 15 mg/day, Day 15",147 mEq/l
same,Platlet Count,"sheep #83, 15 mg/day, Day 15",296000 µL⁻¹
same,RBC,"sheep #83, 15 mg/day, Day 15",1e+07 µL⁻¹
same,WBC,"sheep #83, 15 mg/day, Day 15",4390 µL⁻¹
same,Total Bili,"sheep #83, 15 mg/day, Day 15, ref 0.14-0.32",0.1 mg/dL
same,Creatinine,"sheep #83, 15 mg/day, Day 15, ref 1-2.7",1.2 mg/dL
same,Albumin,"sheep #83, 15 mg/day, Day 15, ref 2.4-3",3.3 g/dL
same,K+,"sheep #83, 15 mg/day, Day 15, ref 3.9-5.4",4.5 mEq/l
same,Phos,"sheep #83, 15 mg/day, Day 15, ref 5-7.3",5.1 mg/dL
same,Total Prot,"sheep #83, 15 mg/day, Day 15, ref 6-7.9",5.9 g/dL
same,ALT,"sheep #83, 15 mg/day, Day 43",6 U/L
same,AST,"sheep #83, 15 mg/day, Day 43",53 U/L
same,Alk Phos,"sheep #83, 15 mg/day, Day 43",96 U/L
same,BUN,"sheep #83, 15 mg/day, Day 43",14 mg/dL
same,CPK,"sheep #83, 15 mg/day, Day 43",49 U/L
same,Cholesterol,"sheep #83, 15 mg/day, Day 43",52 mg/dL
same,Differential Count: Atyp lym,"sheep #83, 15 mg/day, Day 43",2%
same,Differential Count: Eosin,"sheep #83, 15 mg/day, Day 43",3%
same,Differential Count: Lymph,"sheep #83, 15 mg/day, Day 43",70%
same,Differential Count: Mono,"sheep #83, 15 mg/day, Day 43",3%
same,Differential Count: Seg,"sheep #83, 15 mg/day, Day 43",22%
same,Gamma GT,"sheep #83, 15 mg/day, Day 43",54 U/L
same,Glucose,"sheep #83, 15 mg/day, Day 43",83 mg/dL
same,Hct,"sheep #83, 15 mg/day, Day 43",34.9%
same,Hgb,"sheep #83, 15 mg/day, Day 43",11.9 g/dL
same,MCH,"sheep #83, 15 mg/day, Day 43",11.1 pg
same,MCHC,"sheep #83, 15 mg/day, Day 43",31.1 g/dL
same,MCV,"sheep #83, 15 mg/day, Day 43",32.5 fL
same,Na+,"sheep #83, 15 mg/day, Day 43",149 mEq/l
same,Platlet Count,"sheep #83, 15 mg/day, Day 43",576000 µL⁻¹
same,RBC,"sheep #83, 15 mg/day, Day 43",1.07e+07 µL⁻¹
same,WBC,"sheep #83, 15 mg/day, Day 43",4770 µL⁻¹
same,Total Bili,"sheep #83, 15 mg/day, Day 43, ref 0.14-0.32",0.1 mg/dL
same,Creatinine,"sheep #83, 15 mg/day, Day 43, ref 1-2.7",1.3 mg/dL
same,Albumin,"sheep #83, 15 mg/day, Day 43, ref 2.4-3",3.6 g/dL
same,K+,"sheep #83, 15 mg/day, Day 43, ref 3.9-5.4",4.9 mEq/l
same,Phos,"sheep #83, 15 mg/day, Day 43, ref 5-7.3",6.2 mg/dL
same,Total Prot,"sheep #83, 15 mg/day, Day 43, ref 6-7.9",6.6 g/dL
same,Differential Count: Eosin,[3],5%
same,Differential Count: Lymph,[3],62%
same,Differential Count: Mono,[3],1%
same,Differential Count: Seg,[3],32%
same,Hct,[3],41.9%
same,Hgb,[3],15.0 g/dL
same,MCH,[3],10.7 pg
same,MCHC,[3],35.7 g/dL
same,MCV,[3],30.0 fL
same,Platlet Count,[3],721000 µL⁻¹
same,RBC,[3],1.4e+07 µL⁻¹
same,WBC,[3],5790 µL⁻¹
same,ALT,[4],9 U/L
same,AST,[4],100 U/L
same,Albumin,[4],3.3 g/dL
same,Alk Phos,[4],93 U/L
same,BUN,[4],7 mg/dL
same,CPK,[4],90 U/L
same,Cholesterol,[4],45 mg/dL
same,Creatinine,[4],1.2 mg/dL
same,Differential Count: Eosin,[4],8%
same,Differential Count: Lymph,[4],43%
same,Differential Count: Mono,[4],3%
same,Differential Count: Seg,[4],46%
same,Gamma GT,[4],51 U/L
same,Glucose,[4],69 mg/dL
same,Hct,[4],35.7%
same,Hgb,[4],12.9 g/dL
same,K+,[4],4.8 mEq/l
same,MCH,[4],11.0 pg
same,MCHC,[4],36.1 g/dL
same,MCV,[4],30.4 fL
same,Na+,[4],148 mEq/l
same,Phos,[4],6.2 mg/dL
same,Platlet Count,[4],962000 µL⁻¹
same,RBC,[4],1.17e+07 µL⁻¹
